Where two headings read alike, the source gives them in different places.
Experiments:
M2 = molecular target: T1, M2 (Homo sapiens, UniProt P08172); assay: M2 functional activation; format: cell-based
T1 sequence (P08172 1-466): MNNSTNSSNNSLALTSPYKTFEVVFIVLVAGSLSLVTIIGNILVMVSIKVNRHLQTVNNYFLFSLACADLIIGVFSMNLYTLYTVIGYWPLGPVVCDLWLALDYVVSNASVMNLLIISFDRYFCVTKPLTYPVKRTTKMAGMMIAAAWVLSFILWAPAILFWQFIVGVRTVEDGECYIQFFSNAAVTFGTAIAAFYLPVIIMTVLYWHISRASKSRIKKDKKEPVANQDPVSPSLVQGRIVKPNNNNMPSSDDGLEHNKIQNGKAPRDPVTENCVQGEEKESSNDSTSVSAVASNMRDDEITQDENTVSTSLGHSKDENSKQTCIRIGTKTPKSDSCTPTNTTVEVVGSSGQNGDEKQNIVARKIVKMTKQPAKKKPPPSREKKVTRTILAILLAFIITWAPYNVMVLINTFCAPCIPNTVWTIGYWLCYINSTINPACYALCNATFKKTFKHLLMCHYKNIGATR

M3 = M3 (Homo sapiens, UniProt P20309); assay: M3 functional activation; format: cell-based
Sequence of M3 (P20309 whole entry): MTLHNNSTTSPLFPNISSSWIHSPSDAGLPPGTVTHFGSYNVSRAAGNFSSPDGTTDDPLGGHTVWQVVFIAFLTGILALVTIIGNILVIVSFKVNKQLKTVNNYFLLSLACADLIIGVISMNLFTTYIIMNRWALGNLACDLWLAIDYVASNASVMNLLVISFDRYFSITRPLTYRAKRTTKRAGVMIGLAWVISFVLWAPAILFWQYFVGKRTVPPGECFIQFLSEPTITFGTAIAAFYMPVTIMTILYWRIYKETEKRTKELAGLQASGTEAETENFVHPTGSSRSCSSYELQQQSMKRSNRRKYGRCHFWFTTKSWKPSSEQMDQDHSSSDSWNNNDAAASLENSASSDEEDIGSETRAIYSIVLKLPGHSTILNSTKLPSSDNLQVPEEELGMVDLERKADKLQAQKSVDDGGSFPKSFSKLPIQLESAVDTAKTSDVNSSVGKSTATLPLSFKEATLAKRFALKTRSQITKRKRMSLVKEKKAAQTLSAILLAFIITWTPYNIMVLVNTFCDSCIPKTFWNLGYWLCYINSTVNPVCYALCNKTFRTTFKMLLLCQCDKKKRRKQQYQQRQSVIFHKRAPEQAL

M4 = molecular target: T2, M4 (Homo sapiens, UniProt P08173); assay: M4 functional activation; format: cell-based
T2 sequence (P08173 1-479): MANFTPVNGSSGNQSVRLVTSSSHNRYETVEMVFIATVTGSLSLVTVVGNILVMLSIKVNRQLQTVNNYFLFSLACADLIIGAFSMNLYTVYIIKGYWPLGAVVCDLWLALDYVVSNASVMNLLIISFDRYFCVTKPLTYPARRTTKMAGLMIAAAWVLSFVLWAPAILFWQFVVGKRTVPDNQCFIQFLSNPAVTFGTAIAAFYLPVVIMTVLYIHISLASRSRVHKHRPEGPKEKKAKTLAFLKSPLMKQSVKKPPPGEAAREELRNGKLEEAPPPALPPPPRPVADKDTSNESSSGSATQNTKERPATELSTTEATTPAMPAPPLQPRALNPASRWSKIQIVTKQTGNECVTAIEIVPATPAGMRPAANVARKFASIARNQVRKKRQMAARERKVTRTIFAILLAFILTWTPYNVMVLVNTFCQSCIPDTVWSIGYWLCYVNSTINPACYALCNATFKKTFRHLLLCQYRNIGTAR

M5 = molecular target: T3, M5 (Homo sapiens, UniProt P08912); assay: M5 functional activation; format: cell-based
T3 sequence (P08912 1-532): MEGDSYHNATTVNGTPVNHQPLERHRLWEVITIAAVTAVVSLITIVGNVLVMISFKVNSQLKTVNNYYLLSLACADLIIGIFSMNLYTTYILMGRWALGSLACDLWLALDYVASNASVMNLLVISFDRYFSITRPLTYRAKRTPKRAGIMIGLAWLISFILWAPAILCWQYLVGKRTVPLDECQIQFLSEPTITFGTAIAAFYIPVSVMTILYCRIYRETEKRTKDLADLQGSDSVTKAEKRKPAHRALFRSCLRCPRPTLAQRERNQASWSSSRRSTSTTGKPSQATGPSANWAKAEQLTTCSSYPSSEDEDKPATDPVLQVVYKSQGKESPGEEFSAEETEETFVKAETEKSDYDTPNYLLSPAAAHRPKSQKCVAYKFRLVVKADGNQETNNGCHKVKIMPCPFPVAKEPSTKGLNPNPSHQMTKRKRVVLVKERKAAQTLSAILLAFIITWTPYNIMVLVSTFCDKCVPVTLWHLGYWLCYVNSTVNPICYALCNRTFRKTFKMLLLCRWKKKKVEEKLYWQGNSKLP

D2 [1] = molecular target: T4, D2 (Homo sapiens, UniProt P14416); assay: D2 inhibition; format: cell-based
T4 sequence (P14416 whole entry): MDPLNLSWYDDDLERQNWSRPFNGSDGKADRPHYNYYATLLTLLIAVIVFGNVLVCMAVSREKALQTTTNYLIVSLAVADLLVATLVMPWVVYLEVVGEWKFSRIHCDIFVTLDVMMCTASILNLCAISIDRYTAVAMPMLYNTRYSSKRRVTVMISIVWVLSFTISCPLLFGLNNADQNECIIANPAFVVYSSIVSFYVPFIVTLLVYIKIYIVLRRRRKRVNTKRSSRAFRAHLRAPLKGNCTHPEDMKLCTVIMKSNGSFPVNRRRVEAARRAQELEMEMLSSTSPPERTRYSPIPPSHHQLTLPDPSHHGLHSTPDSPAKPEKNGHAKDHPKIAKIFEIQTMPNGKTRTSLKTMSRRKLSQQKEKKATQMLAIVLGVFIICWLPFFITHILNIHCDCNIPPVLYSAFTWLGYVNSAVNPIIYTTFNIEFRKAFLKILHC

M1 = molecular target: T5, M1 (Rattus norvegicus, UniProt P08482); assay: 10 μM single point M1 activation screen; format: cell-based; conditions: in triplicate, relative to ACh, CCh and TBPB controls
T5 sequence (P08482 1-460): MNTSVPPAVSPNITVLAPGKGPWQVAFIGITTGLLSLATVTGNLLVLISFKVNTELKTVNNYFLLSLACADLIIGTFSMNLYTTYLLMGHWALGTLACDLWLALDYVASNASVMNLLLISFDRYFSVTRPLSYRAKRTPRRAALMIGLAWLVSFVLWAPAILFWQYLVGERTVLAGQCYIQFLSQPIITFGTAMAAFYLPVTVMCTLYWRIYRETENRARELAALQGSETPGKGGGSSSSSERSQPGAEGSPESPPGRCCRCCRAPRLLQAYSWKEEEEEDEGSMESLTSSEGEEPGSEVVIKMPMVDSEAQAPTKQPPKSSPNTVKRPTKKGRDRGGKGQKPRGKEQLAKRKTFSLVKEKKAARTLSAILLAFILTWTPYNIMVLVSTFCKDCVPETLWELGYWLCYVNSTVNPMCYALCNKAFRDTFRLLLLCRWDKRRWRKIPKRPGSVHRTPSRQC

D2 [2] = molecular target: T4, D2; conditions: cited from earlier work

## O=c1[nH]c2ccccc2n1C1CCN(C2CCN(S(=O)(=O)c3ccccc3)CC2)CC1 [9c]
M2
  EC50: > 30000 nM
M3
  EC50: > 30000 nM
M4
  EC50: > 30000 nM
M5
  EC50: > 30000 nM
D2 [1]; read-out: inhibition of D2
  inhibition at 10 µM: ~10%
M1
  M1 activation, single point screen: activated M1

## O=c1[nH]c2ccc(F)cc2n1C1CCN(C2CCN(S(=O)(=O)c3ccccc3)CC2)CC1 [14c]
D2 [1]; at concentrations up to 10 μM
  inhibition of D2: did not inhibit

## CCOC(=O)N1CCC(N2CCC(n3c(=O)[nH]c4ccccc43)CC2)CC1 [ethyl carbamate congener]
M2
  % CCh Max at M2: 80.6%
M2; read-out: M2 EC50
  EC50: 11.9 nM
M4
  % CCh Max at M4: 96.9%
M4; read-out: M4 EC50
  EC50: 9.1 nM
M5
  % CCh Max at M5: 50.8%
M5; read-out: M5 EC50
  EC50: 34.3 nM

## O=C(Nc1cccc(SC(F)(F)F)c1)N1CCC(N2CCC(n3c(=O)[nH]c4ccccc43)CC2)CC1 [10i]
M1
  M1 activation, single point screen: activated M1

## O=c1[nH]c2ccccc2n1C1CCN(C2CCN(Cc3ccccc3C(F)(F)F)CC2)CC1 [compound 2]
D2 [2]
  D2 inhibitory activity: no D2 inhibitory activity

From paper PMC3177607 (Bioorganic & medicinal chemistry letters, 2008)
